Test results published in patent publication US9492471B2, “Methods of treating a disease or disorder associated with Bruton'S Tyrosine Kinase” (Celgene Avilomics Research, Inc., priority 2013, dated 2016).
Where two headings read alike, the source gives them in different places.

What was measured:
Assay in all cases: HotSpot kinase profiling
Format in all cases: biochemical
[1] = target: T1, VRK2 (Homo sapiens, UniProt Q86Y07)
T1 construct: purchased Reaction Biology Corp
Summary of the method: (§1)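 Activity is measured by radiolabel transfer captured on P81 filters after a 2 h room-temperature reaction of kinase, substrate and cofactors. Values are percent inhibition against DMSO.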

[2] = target: T2, CAMK4 (Homo sapiens, UniProt Q16566)
T2 construct: purchased Reaction Biology Corp
T2 sequence (Q16566 1-473): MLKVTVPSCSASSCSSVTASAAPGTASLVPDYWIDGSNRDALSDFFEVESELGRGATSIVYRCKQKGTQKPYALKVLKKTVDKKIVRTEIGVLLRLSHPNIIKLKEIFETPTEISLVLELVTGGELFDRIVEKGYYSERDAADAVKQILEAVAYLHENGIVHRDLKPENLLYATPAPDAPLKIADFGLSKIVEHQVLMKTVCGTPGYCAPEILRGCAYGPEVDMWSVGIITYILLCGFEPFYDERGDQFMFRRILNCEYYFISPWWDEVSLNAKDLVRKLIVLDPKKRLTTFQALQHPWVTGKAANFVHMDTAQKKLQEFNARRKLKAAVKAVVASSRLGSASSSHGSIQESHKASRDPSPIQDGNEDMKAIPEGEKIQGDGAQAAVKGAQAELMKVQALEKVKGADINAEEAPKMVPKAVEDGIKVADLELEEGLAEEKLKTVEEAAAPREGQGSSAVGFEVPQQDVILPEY
Summary of the method: as §1

[3] = target: T3, IR (Homo sapiens, UniProt P06213)
T3 construct: purchased Reaction Biology Corp
Summary of the method: as §1

[4] = target: T4, RIPK2 (Homo sapiens, UniProt O43353)
T4 construct: purchased Reaction Biology Corp
Summary of the method: as §1

[5] = target: T5, FGFR1 (Homo sapiens, UniProt P11362)
T5 construct: purchased Reaction Biology Corp
Summary of the method: as §1

[6] = target: T6, WNK1 (Homo sapiens, UniProt Q9H4A3)
T6 construct: purchased Reaction Biology Corp
Summary of the method: as §1

[7] = target: T7, CK1g3 (Homo sapiens, UniProt Q9Y6M4)
T7 construct: purchased Reaction Biology Corp
Summary of the method: as §1

[8] = target: T8, TNIK (Homo sapiens, UniProt Q9UKE5)
T8 construct: purchased Reaction Biology Corp
Summary of the method: as §1

[9] = target: T9, CAMK1a (Homo sapiens, UniProt Q14012)
T9 construct: purchased Reaction Biology Corp
Summary of the method: as §1

[10] = target: T10, VRK1 (Homo sapiens, UniProt Q99986)
T10 construct: purchased Reaction Biology Corp
T10 sequence (Q99986 1-396): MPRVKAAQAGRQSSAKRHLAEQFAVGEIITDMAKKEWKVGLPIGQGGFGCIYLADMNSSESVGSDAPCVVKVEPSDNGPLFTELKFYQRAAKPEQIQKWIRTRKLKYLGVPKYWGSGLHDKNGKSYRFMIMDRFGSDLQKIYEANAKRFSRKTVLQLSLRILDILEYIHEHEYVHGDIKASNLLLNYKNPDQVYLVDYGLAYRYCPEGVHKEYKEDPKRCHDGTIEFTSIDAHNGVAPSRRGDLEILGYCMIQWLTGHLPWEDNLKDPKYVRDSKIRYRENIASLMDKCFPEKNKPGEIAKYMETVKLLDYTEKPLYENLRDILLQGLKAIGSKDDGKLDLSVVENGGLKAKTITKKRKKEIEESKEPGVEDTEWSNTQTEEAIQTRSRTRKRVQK
Summary of the method: as §1

[11] = target: T11, DMPK2 (Homo sapiens, UniProt Q6DT37)
T11 construct: purchased Reaction Biology Corp
Summary of the method: as §1

[12] = target: T12, DYRK4 (Homo sapiens, UniProt Q9NR20)
T12 construct: purchased Reaction Biology Corp
T12 sequence (Q9NR20 1-520): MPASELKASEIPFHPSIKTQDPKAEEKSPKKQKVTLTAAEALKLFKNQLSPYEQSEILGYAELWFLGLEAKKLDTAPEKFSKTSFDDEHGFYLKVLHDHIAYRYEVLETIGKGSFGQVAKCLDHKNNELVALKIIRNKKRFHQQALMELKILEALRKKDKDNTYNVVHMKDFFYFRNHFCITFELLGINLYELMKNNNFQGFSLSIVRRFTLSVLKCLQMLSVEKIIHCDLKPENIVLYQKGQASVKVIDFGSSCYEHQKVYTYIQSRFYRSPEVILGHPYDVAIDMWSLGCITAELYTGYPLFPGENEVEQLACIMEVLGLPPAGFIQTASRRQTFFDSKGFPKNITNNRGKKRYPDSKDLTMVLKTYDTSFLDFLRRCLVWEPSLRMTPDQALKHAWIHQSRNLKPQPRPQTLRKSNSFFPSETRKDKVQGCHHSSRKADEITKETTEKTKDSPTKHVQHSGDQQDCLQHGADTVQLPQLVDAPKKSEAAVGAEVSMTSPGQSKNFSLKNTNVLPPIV
Summary of the method: as §1

[13] = read-out: % Enzyme Activity (relative to DMSO controls) Run 1
[14] = read-out: % Enzyme Activity (relative to DMSO controls) Run 2

T9 sequence (Q14012 whole entry): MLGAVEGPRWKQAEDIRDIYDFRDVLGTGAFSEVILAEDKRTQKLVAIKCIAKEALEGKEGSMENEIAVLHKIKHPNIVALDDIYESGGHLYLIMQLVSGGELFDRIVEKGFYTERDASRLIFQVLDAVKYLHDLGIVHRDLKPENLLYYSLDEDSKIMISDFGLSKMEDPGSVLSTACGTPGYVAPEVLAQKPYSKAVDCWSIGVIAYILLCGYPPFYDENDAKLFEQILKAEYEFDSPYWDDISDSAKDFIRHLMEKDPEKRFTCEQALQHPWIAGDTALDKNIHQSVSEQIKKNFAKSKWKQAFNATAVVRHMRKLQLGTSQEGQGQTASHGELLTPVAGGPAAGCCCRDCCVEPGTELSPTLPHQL
T1 sequence (Q86Y07 whole entry): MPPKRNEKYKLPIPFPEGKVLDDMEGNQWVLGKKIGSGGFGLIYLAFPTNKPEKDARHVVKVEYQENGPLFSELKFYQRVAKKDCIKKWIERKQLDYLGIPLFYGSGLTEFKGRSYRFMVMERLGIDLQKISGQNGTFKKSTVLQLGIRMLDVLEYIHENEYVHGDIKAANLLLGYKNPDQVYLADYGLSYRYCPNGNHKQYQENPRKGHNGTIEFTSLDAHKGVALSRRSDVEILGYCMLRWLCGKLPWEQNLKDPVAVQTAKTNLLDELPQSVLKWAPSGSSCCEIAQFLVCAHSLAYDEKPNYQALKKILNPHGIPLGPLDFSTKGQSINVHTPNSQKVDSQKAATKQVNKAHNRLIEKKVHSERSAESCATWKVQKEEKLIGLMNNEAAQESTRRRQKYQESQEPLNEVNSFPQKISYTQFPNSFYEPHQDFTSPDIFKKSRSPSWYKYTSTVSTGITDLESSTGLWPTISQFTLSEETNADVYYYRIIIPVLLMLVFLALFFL
T8 sequence (Q9UKE5 whole entry): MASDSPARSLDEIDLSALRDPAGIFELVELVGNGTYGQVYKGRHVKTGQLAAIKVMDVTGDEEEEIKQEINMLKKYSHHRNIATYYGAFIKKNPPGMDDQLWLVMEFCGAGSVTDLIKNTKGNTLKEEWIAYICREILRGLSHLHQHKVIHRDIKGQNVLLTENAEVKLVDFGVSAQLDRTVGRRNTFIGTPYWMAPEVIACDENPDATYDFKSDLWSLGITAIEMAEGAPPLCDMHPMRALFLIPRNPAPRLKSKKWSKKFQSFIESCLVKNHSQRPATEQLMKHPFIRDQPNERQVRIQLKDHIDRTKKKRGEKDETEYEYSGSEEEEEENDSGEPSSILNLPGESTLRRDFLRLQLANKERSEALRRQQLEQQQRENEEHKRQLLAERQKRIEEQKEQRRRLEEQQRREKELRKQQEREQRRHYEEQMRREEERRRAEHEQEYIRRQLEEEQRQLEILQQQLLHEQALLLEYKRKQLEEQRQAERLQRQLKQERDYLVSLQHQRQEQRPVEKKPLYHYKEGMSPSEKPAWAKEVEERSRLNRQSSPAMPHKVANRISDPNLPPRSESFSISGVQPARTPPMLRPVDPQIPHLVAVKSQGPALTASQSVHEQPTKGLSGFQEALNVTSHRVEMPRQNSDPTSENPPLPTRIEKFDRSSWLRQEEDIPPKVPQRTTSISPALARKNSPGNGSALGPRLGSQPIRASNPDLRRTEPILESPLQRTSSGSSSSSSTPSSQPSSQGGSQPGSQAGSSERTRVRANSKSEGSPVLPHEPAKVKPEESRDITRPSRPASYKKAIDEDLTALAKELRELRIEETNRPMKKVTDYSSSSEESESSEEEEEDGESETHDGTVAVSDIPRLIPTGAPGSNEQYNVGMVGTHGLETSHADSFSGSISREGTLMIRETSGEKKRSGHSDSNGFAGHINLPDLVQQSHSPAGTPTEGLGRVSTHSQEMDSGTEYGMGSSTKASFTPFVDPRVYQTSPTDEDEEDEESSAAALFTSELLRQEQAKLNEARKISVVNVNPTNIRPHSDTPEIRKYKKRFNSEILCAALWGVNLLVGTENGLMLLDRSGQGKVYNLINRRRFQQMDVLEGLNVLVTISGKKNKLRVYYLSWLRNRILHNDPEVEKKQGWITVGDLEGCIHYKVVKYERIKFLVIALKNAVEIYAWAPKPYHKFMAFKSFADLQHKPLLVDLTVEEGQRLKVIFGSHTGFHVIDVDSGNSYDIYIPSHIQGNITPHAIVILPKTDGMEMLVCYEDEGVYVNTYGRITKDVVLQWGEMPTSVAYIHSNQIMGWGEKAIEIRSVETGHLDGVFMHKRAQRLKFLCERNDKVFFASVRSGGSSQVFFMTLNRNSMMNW
T6 sequence (Q9H4A3 whole entry): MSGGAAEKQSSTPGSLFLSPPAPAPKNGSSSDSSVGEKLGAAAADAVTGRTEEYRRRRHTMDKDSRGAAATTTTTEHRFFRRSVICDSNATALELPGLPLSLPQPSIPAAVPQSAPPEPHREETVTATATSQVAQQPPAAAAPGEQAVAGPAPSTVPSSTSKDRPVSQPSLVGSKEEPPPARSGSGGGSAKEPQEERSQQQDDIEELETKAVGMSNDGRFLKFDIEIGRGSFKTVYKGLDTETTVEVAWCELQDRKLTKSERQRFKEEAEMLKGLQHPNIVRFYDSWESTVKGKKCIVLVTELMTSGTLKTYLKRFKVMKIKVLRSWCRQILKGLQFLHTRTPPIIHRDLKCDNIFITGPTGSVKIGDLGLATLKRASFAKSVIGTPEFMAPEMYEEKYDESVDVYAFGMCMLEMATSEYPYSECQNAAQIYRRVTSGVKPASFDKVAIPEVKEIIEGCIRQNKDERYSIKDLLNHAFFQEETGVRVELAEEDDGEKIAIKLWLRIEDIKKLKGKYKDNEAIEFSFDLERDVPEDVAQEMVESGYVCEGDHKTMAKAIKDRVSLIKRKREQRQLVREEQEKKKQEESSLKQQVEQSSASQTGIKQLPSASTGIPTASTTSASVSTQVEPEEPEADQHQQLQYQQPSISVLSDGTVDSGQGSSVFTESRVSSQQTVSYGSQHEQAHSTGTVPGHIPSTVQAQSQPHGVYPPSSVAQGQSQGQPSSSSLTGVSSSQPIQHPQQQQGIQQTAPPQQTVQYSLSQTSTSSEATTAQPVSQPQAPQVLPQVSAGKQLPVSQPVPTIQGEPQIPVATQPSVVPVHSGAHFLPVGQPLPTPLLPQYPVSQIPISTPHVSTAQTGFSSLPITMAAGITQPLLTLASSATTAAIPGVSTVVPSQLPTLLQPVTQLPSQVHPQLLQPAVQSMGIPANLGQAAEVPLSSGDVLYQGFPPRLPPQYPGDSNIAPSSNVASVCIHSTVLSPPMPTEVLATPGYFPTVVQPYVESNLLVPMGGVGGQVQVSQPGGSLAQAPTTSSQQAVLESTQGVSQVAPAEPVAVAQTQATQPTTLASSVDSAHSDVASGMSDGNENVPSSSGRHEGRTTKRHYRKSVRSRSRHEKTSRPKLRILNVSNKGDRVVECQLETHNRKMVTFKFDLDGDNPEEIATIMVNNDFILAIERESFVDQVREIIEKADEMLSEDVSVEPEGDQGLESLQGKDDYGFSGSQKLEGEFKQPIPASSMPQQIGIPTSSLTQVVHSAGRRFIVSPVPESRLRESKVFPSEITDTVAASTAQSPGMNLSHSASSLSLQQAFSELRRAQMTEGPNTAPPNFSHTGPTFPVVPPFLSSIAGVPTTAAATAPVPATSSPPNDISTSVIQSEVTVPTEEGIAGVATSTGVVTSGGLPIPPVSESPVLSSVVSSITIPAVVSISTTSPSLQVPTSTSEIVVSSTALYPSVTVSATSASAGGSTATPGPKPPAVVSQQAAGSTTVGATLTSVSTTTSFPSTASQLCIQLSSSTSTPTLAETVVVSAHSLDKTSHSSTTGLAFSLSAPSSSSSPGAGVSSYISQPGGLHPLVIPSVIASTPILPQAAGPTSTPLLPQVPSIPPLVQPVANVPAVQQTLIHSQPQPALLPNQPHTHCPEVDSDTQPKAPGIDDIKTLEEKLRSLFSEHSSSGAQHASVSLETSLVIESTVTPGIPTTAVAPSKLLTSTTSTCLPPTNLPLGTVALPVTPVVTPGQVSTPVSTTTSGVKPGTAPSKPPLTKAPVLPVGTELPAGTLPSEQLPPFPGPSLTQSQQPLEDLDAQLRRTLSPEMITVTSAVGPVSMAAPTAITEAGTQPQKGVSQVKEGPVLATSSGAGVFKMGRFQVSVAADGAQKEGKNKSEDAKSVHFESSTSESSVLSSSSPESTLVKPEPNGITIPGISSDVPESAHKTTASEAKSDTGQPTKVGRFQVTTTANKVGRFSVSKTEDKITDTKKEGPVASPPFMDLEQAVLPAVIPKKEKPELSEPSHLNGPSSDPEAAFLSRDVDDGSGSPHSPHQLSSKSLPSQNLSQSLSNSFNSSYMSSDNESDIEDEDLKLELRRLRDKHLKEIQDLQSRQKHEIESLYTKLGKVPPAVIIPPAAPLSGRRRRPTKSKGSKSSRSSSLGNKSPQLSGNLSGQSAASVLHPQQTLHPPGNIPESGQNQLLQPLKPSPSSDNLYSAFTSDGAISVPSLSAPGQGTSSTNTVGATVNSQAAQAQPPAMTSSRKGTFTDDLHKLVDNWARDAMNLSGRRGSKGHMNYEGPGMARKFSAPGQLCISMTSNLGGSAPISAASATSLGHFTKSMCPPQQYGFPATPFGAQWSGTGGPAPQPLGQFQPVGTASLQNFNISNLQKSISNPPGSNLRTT
T7 sequence (Q9Y6M4 whole entry): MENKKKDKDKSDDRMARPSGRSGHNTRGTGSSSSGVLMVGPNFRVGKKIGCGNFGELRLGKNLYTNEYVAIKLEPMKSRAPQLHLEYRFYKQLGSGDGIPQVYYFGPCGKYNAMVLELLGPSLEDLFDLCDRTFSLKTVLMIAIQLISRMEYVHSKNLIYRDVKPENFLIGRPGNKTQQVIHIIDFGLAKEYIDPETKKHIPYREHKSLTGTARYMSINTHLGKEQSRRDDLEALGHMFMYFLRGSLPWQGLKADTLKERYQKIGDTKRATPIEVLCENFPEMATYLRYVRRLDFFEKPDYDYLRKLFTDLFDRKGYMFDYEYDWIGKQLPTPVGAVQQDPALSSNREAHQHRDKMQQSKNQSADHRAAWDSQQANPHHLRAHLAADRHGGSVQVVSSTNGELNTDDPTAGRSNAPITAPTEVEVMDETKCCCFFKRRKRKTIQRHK

Structure (SMILES): C=CC(=O)Nc1cccc(Nc2nc(Nc3ccc(OCCOC)c(F)c3)ncc2F)c1 [Compound 2]
- inhibition at 3 µM [1]: 5.06%
- remaining activity at 3 µM [1, 13]: 94%
- remaining activity at 3 µM [1, 14]: 95.9%
- inhibition at 3 µM [2]: -2.26%
- remaining activity at 3 µM [2, 13]: 102%
- remaining activity at 3 µM [2, 14]: 102%
- inhibition at 3 µM [3]: 15.4%
- remaining activity at 3 µM [3, 13]: 84.5%
- remaining activity at 3 µM [3, 14]: 84.7%
- inhibition at 3 µM [4]: 23.7%
- remaining activity at 3 µM [4, 13]: 77.6%
- remaining activity at 3 µM [4, 14]: 75%
- inhibition at 3 µM [5]: 59.7%
- remaining activity at 3 µM [5, 13]: 41.4%
- remaining activity at 3 µM [5, 14]: 39.3%
- inhibition at 3 µM [6]: -12.1%
- remaining activity at 3 µM [6, 13]: 112%
- remaining activity at 3 µM [6, 14]: 112%
- inhibition at 3 µM [7]: 15%
- remaining activity at 3 µM [7, 13]: 84.2%
- remaining activity at 3 µM [7, 14]: 85.8%
- inhibition at 3 µM [8]: 32.7%
- remaining activity at 3 µM [8, 13]: 66.8%
- remaining activity at 3 µM [8, 14]: 67.8%
- inhibition at 3 µM [9]: -10.4%
- remaining activity at 3 µM [9, 13]: 109%
- remaining activity at 3 µM [9, 14]: 112%
- inhibition at 3 µM [10]: 12.9%
- remaining activity at 3 µM [10, 13]: 84.3%
- remaining activity at 3 µM [10, 14]: 89.9%
- inhibition at 3 µM [11]: 1.54%
- remaining activity at 3 µM [11, 13]: 97.4%
- remaining activity at 3 µM [11, 14]: 99.6%
- inhibition at 3 µM [12]: -5.35%
- remaining activity at 3 µM [12, 13]: 105%
- remaining activity at 3 µM [12, 14]: 106%
